The text below walks through data of patent US20250144085A1, “PHARMACEUTICAL COMPOSITION FOR PREVENTING OR TREATING CANCER COMPRISING OMEPRAZOLE BROWNING MATTER” (NEW CANCER CURE BIO CO., LTD, priority 2021, published 2025).

Molecules are shown by their SMILES.

This experiment deals with pancreatic cancer (MIA PaCa2) cell line. Kind of experiment: sulforhodamine B colorimetric assay (SRB assay) of cancer cell death. The class given is cell-based. To be noted: 48 hours; for Cancer cell killing rate (%) by treatment with omeprazole (KN510) degradation substance: 0.1%; for Cancer cell growth rate following treatment with omeprazole (KN510) degradation substance, average(%): treated at a concentration of 0.1%. On the procedure:
In order to confirm the anticancer activity of the omeprazole (KN510) degradation substances (acid degradation substances) and base degradation substances prepared in Example 1 above, the cancer cell killing effect of each of the omeprazole (KN510) degradation substances was determined. The extent of cancer cell death was measured by sulforhodamine B colorimetric assay (SRB assay), which was performed as follows: A pancreatic cancer (MIA PaCa2) cell line (100 μ ? ) was inoculated into 96-well cell culture plates at a density ranging from 7,500 to 10,000 cells/well depending on the doubling time. Each of the omeprazole (KN510) degradation substances prepared in Example 1 above was treated at a concentration of 0.1% and incubated in a CO2 incubator for 48 hours, after which the assay was terminated by adding cold TCA. Cells were fixed intact by gently adding 50 μl of cold 50% (w/v) TCA (final concentration: 10% TCA) and incubated at 4° C. for 60 min. The supernatant was discarded, and the plate was washed five times with distilled water and then air dried. A solution (100 μl) of 0.4% (w/v) sulforhodamine B in 1% acetic acid was added to each well, and the plate was left at room temperature for 10 min. After staining, unbound dye was removed by washing five times with 1% acetic acid, and the plate was air-dried. The bound dye was then solubilized with 10 mM trizma base, and the absorbance was recorded at 515 nm using an automated plate reader. All experiments were performed in triplicate, and data were expressed as mean±standard deviation values.
For orientation: The SRB assay estimates cell density from bound dye.

Consider `COc1ccc2[nH]c([S+]([O-])Cc3ncc(C)c(OC)c3C)nc2c1` (centres unmarked) [omeprazole (KN510), omeprazole], for which the “Cancer cell killing rate (%) by treatment with omeprazole (KN510) degradation substance” value reads like this: (compared to the control group using the values in Table 1) “about 32%”; (compared to the control group using the values in Table 1, listed as KN510 + 1M HCl 0 μl) 31.85%; (compared to the control group using the values in Table 1, listed as KN510 + 1M NaOH 0 μl) 32.82%. For the same compound, the “Cancer cell growth rate following treatment with omeprazole (KN510) degradation substance, average(%)” value is, setting by setting: (control = 100.00, listed as KN510 + 1M HCl 0 μl) 68.15%; (control = 100.00, listed as KN510 + 1M NaOH 0 μl) 67.18%.
